The values below come from ChEMBL document CHEMBL1125116 (J Med Chem, 1990).

Structures are written as SMILES.

The assay concerns the target D(2) dopamine receptor (Rattus norvegicus, UniProt P61169). Kind of assay: Evaluated in vitro for the affinity towards Dopamine receptor D2 of rat striatal tissue.

D(2) dopamine receptor, sequence (P61169 whole entry): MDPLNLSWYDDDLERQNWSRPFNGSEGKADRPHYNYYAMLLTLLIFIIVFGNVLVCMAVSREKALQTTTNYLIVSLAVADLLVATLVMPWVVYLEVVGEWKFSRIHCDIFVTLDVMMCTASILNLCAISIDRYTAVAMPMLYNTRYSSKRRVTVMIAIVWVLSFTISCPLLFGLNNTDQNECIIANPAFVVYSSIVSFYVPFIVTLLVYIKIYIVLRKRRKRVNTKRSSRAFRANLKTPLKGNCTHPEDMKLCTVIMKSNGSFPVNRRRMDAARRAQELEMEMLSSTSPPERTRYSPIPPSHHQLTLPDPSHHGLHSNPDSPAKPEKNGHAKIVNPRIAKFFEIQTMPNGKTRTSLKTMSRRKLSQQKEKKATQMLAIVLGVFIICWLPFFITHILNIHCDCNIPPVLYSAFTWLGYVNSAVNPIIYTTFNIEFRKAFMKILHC

With `CCN1CCC[C@H]1CNC(=O)c1cc(I)ccc1OC` [IODOPRIDE], the affinity, expressed as Kd, was 3 nM.

`O=C(CCCN1CCC2(CC1)C(=O)NCN2c1ccccc1)c1ccc(F)cc1I`: the Kd (in general, the free concentration of one partner at which half of the binding sites on the other are occupied at equilibrium, for simple one-to-one binding) stood at 0.25 nM.
